In US9000023B2, “Disubstituted phthalazine hedgehog pathway antagonists” (Eli Lilly and Company, priority 2009, dated 2015) one finds IC50 and inhibition data, which are given here for one compound.

One series concerns Gli1 in Daoy cells. Put plainly: Functional assay for measuring the inhibition of Gli1 in Daoy cells (bDNA assay). Particulars: Homo sapiens; Daoy cells stimulated with Shh conditioned media, 24 hours with compound, Gli1 transcript by bDNA luminescence. In kind it is cell-based. Here is the method: All ligands, solvents, and reagents employed in the following assay are readily available from commercial sources or can be readily prepared by one skilled in the art. Biological activity is determined using a functional assay in Daoy neuronal cancer cells and measures levels of Gli1 ribonucleic acid via a bDNA (branched deoxyribonucleic acid) assay system (Panomics, Inc., Fremont, Calif.). Gli was originally discovered in a Glioblastoma cell line and encodes a zinc finger protein that is activated by Shh signaling. The maximum response is obtained by inducing Gli1 transcription in the Daoy cells with conditioned medium (human embryonic kidney, HEK-293 cells stably expressing recombinant Shh) for 24 hours and then measuring the amount of stimulated Gli1 transcript. […] The bDNA assay system utilizes the technology of branched-chain DNA to allow amplification of a target ribonucleic acid (transcript). […] The addition of a chemilumigenic substrate during the amplification step allows for detection using luminescence. […] The cells are removed from the T225-flasks using trypsin ethylenediaminetetraacetic acid (EDTA), centrifuged, resuspended in media, and then counted. […] The signal is quantified by reading the plates on a Perkin Elmer Envision reader detecting luminescence. […]

The next series deals with CYP3A4 (Homo sapiens, UniProt P08684). Briefly: CYP3A4 Inhibition Assay (human liver microsomes, midazolam substrate). Particulars: pH 7.4, probe midazolam (5 μM; formation of 1-OH-midazolam). (Liver microsomes are a subcellular fraction often used to study metabolism.)

What is called IC50 is the point on the concentration scale where inhibition reaches its midpoint. One may read the inhibition as the percentage by which the read-out fell short of the control. Low values mean little suppression, high ones strong suppression.

Each structure is given as a SMILES string. Where a name gives a salt, the structure may show the parent alone.

CYP3A4, sequence (P08684 whole entry): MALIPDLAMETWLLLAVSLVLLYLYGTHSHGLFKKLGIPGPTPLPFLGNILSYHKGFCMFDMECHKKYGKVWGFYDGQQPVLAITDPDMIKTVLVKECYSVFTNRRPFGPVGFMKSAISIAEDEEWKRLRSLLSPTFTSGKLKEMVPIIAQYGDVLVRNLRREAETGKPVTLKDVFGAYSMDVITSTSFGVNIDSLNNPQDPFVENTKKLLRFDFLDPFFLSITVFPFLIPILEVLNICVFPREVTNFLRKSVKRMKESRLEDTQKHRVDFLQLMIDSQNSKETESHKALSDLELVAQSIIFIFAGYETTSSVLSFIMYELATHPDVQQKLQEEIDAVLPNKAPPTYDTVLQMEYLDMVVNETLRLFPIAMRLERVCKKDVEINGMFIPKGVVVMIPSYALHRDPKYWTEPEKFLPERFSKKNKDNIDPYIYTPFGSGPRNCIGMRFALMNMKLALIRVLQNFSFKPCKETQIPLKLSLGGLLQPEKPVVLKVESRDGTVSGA

For `CN(C(=O)c1ccc(F)cc1C(F)(F)F)C1CCN(c2nnc(-c3ccnn3C)c3ccccc23)CC1` [Example 1a, 4-Fluoro-N-methyl-N-(1-(4-(1-methyl-1H-pyrazol-5-yl)phthalazin-1-yl)piperidin-4-yl)-2-(trifluoromethyl)benzamide hydrochloride], in the series on Gli1 in Daoy cells, the concentration for half-maximal inhibition (IC50) was around 2.4 nM. On CYP3A4, the inhibition at 3 min, 10 μM worked out at 13.5%.
